As a reminder, the inhibition in vivo is how much of the control response was suppressed. As usually defined, the IC50 is the concentration that inhibits the measured activity by half. Read a high IC50 as lower potency. As usually defined, the ED50 is the dose that gives a 50% effect, or the effect in half of the subjects. By inhibition is commonly meant the relative decrease from the control value, in per cent. A word on the LD50: it is the dose expected to kill half of the subjects tested.

For data set [1], the system named is Rattus norvegicus. Briefly: Anti-inflammatory activity against carrageenan-induced paw edema in Wistar albino rat at 10 mg/kg, po pretreated for 1 hr followed by carrageenan addition measured after 6 hrs by plethysmometer relative to control. The format is functional. As to conditions: time 7 hrs. For orientation: Carrageenan injected into the paw causes an acute inflammation.

The test system of data set [2] is Rattus norvegicus. Briefly: Antiulcer activity against ulceration induced albino Wistar rat assessed as ulcerogenic index pretreated daily at 25 mg/kg for 4 days followed by 24 hrs fasting prior to pylorus ligation measured after 4 hrs. The format is functional. As to conditions: time 124 hrs.
For data set [3], the system named is Rattus norvegicus. Briefly: Anti-inflammatory activity against carrageenan-induced paw edema in Wistar rat at 20 mg/kg, po assessed as paw edema volume measured after 4 hrs by plethysmometric analysis relative to control. The format is functional.
A short description of data set [4]: Inhibition of soy 15-LOX enzyme immunoassay. The arrangement: species or system Glycine max.
Data set [5] deals with Rattus norvegicus. The data set can be described thus: Acute anti-inflammatory activity against carrageenan induced paw edema in Albino rat at 20 mg/kg, po pretreated for 30 mins followed by carrageenan addition measured every hour for 3 hrs by plethysmography method relative to control. As to conditions: time 3.5 hrs. The format is functional.
Data set [6] concerns Rattus norvegicus. Briefly: Anti-inflammatory activity against Cotton pellets induced granuloma in Albino rat at 20 mg/kg, po administered for 7 days measured on day 8 by measuring pellet weight relative to control. It is filed as functional. The following applies: time 8 day.
Data set [7] has as its system Rattus norvegicus. Briefly: Anti-inflammatory activity against formalin-induced foot paw edema in Wistar rat assessed as oedema inhibition at 10 mg/kg,po measured after 3 hrs by plethysmometric analysis relative to control. It is filed as functional.
In data set [8] the test system is Rattus norvegicus. The data set can be described thus: Anti-inflammatory activity against formalin-induced foot paw edema in Wistar rat assessed as oedema inhibition at 10 mg/kg,po measured after 6 hrs by plethysmometric analysis relative to control. It is filed as functional.
The test system of data set [9] is Rattus norvegicus. The data set can be described thus: Anti-inflammatory activity against carrageenan-induced paw edema in rat relative to control. The format is functional.
Data set [10] relates to Rattus norvegicus. The data set can be described thus: Anti-inflammatory activity against formalin-induced foot paw edema in Wistar rat assessed as oedema inhibition at 10 mg/kg,po measured after 1 hrs by plethysmometric analysis relative to control. The format is functional.
Data set [11] relates to Rattus norvegicus. The data set can be described thus: Anti-inflammatory activity against carrageenan induced paw edema in rat assessed as inhibition of paw edema at 12.5 mg/kg,PO pretreated for 1 hrs followed by carrageenan addition for 4 hrs by plethysmographic analysis relative to control. As to conditions: time 5 hrs. The format is functional.
In data set [12] the test system is Rattus norvegicus. Briefly: Anti-inflammatory activity against carrageenan-induced paw oedema in 12 hrs fasted Albino rat assessed as inhibition of oedema formation administered intraperitoneally measured after 3 hrs relative to control. The format is functional. As to conditions: route ip.
The nature of data set [13]: Ulcerogenic activity in 12 hrs fasted Albino rat assessed as ulcerogenic index at […] per day, po for 3 days. The format is toxicity, organism-based. As to conditions: in vivo, 72 h, time 3 day.
Data set [14] has as its system Rattus norvegicus. Briefly: Anti-inflammatory activity against carrageenan-induced paw edema in po dosed Wistar rat pretreated for 1 hrs followed by carrageenan addition measured after 3 hrs. It is filed as functional. The following applies: time 4 hrs.
Another data set relates to Erythrocyte. Briefly: Anti-inflammatory against heat induced human red blood cells assessed as inhibition of heat induced hemolysis by measuring membrane stabilization for at 100 ug/ml incubated for 30 mins relative to control. The format is functional. The following applies: 0.5 h.
The species entered for another data set is Homo sapiens. The data set can be described thus: Inhibition of proteinase (unknown origin) at 100 ug/ml using casein as substrate preincubated for 5 mins followed by addition of substrate for 20 mins relative to control. The following applies: dose 100.0 µg/ml.
Data set [15] concerns Mus musculus. Briefly: Analgesic activity in albino […] mouse assessed as increase in reaction on paw licking at 100 mg/kg, po pretreated for 1 hrs followed by hot plate treatment measured after 90 mins by analgesiometer based analysis relative to control. The following applies: time 2.5 hrs. The format is functional.
Data set [16] deals with Rattus norvegicus. The data set can be described thus: Anti-inflammatory activity against carrageenan-induced paw edema in Albino rat assessed as percentage of protection at 50 mg/kg,po pretreated for 1 hrs followed by carrageenan addition measured after 4 hrs by plethysmography method relative to control. The following applies: time 5 hrs. It is filed as functional.
Data set [17] concerns Mus musculus. Briefly: Analgesic activity in hot plate induced thermal pain Swiss albino mouse model assessed as change in latency at 10 mg/kg, po measured at 1 to 2 hrs relative to control. The format is functional. As to conditions: time 1-2 hrs.
The subject of data set [18] is Rattus norvegicus. Briefly: Anti-inflammatory activity against carrageenan-induced paw edema in Wistar albino rat model assessed as inhibition of paw edema at 20 mg/kg, PO relative to control. It is filed as functional.
The subject of data set [19] is Rattus norvegicus. The data set can be described thus: Anti-inflammatory activity against carrageenan-induced hind paw edema in rat at 20 mg/kg, PO measured after 5 hrs relative to control. It is filed as functional.
A further data set has as its system RAW264.7. The data set can be described thus: Anti-inflammatory activity against LPS induced mouse RAW264.7 cells assessed as suppression of TNFalpha cytokine level at 20 uM incubated for 24 hrs by ELISA assay relative to control. The format is functional. (In general: In an ELISA, binding on a coated surface is turned into a signal by an enzyme label.)
Data set [20] is described as follows: Acute toxicity in PO dosed Wistar albino rat measured for 14 days. The following applies: in vivo, time 14 day. It is filed as organism-based.

In the case of `CC(C)Cc1ccc(C(C)C(=O)c2ccc(OCc3cn(Cc4ccc([N+](=O)[O-])cc4)nn3)cc2O)cc1` (stereo unspecified), the inhibition in vivo at 10 mg/kg in the data set with Rattus norvegicus [1] is 94.2%.
Take `S=c1oc(-c2csc(-c3ccccc3)n2)nn1CN1CCCCC1`: the Activity in the data set with Rattus norvegicus [2] was 0.44.
With `COc1ccccc1OC(=O)c1cc(OC)c(OC)c(OC)c1`, in the data set on Rattus norvegicus [3], the inhibition in vivo at 20 mg/kg is 77.1%.
Turning to `Cc1ccc(Cl)c(Nc2ccccc2C(=O)O)c1Cl` [MECLOFENAMATE SODIUM], the concentration for half-maximal inhibition (IC50) in [4] is 5.64 µM.
For `O=C(CCN1CCN(c2ccc([N+](=O)[O-])cc2)CC1)Nc1ccc2oc(Cc3ccc(Cl)cc3)nc2c1`, the Activity stood at 81.7% in the data set on Rattus norvegicus [5] and 44% in the data set with Rattus norvegicus [6].
On to `O=C(O)Cc1ccccc1Nc1c(Cl)cccc1Cl` [DICLOFENAC], for which the inhibition in vivo at 10 mg/kg with Rattus norvegicus [7] stood at 40.7%; with Rattus norvegicus [8], 41.7%; with Rattus norvegicus [10] it was 41.7%. Further, in the data set on Rattus norvegicus [9], the Activity was determined as 85.6%. The inhibition in vivo at 12.5 mg/kg in the data set with Rattus norvegicus [11] came to 94%.
Regarding `O=C(Nc1nc2ccccc2s1)C(Cc1cc2ccccc2[nH]1)N(C(=O)c1ccccc1)S(=O)(=O)c1ccc([N+](=O)[O-])cc1` (stereo unspecified), the “inhibition (INH)” value with Rattus norvegicus [12] was determined as 80%. Also, the Activity_index in [13] was 0.82.
`O=C(O)CC(O)(c1ccccc1)c1ccccc1`: the 50% effective dose (ED50) in the data set on Rattus norvegicus [14] is 15 µmol/kg.
Consider `O=Cc1cc2cccc(-c3nc4ccccc4o3)c2nc1Cl`, for which, in the data set on Erythrocyte, the inhibition at 100 µg/mL is 74.3%. The inhibition in the data set listed under Homo sapiens is 80.2%.
For `O=C(CCN1CCN(c2cccc(Cl)c2Cl)CC1)Nc1ccc2oc(Cc3ccc(Cl)cc3)nc2c1`, the Activity was determined as 77.6% with Rattus norvegicus [5] and 39.3% in the data set with Rattus norvegicus [6].
As for `C/C(=N/Nc1ccc(C(=O)O)cc1)c1cccc(N2C(=O)c3ccccc3C2=O)c1`, the inhibition in vivo at 10 mg/kg in the data set with Rattus norvegicus [7] stood at 22.2%; with Rattus norvegicus [8], 29.2%; in the data set with Rattus norvegicus [10], 29.2%.
In the case of `O=C(CCc1nnc(-c2ccc(O)cc2)o1)N/N=C1\C(=O)Nc2ccccc21`, in the data set on Mus musculus [15], the Activity amounted to 84.11%.
As for `CCc1nnc(-c2cc3cc([N+](=O)[O-])ccc3o2)o1`, the Activity in the data set on Rattus norvegicus [16] is 72%.
For `CN1C(C(=O)Nc2ccccn2)=C(O)c2ccccc2S1(=O)=O` [PIROXICAM], the inhibition in vivo at 10 mg/kg in the data set on Mus musculus [17] is 75%.
As to `COc1cc(Cc2nc3cc(NC(=O)c4ccc(Cl)cc4)ccc3o2)cc(OC)c1OC`, the inhibition in vivo at 20 mg/kg in the data set with Rattus norvegicus [18] came out at 79.5%.
Regarding `COc1ccc2c(c1)c(CC(=O)O)c(C)n2C(=O)c1ccc(Cl)cc1` [INDOMETHACIN], the Activity with Mus musculus [15] is 85.84%; with RAW264.7, 68.84%. In addition, the values for the inhibition in vivo at 20 mg/kg with Rattus norvegicus [3] and in the data set on Rattus norvegicus [19] were 81.9% and 81%, respectively.
In data set [20], `O=C(Cc1cn(-c2ccccc2)nc1O)Nc1ccccc1-c1cc(-c2ccc(Br)cc2)n(-c2ccccc2)n1` displayed a median lethal dose (LD50) at 336 h of 2000 mg/kg.
Regarding `Cc1ccc(N(O)/N=N/c2ccc(S(=O)(=O)Nc3nc(C)cc(C)n3)cc2)cc1`, the inhibition in vivo at 12.5 mg/kg in the data set on Rattus norvegicus [11] is 97.1%.
